The results in this text go back to publication PMC2248166, “Quantitative peptide binding motifs for 19 human and mouse MHC class I molecules derived using positional scanning combinatorial peptide libraries” (Immunome Research, 2008).

Where a SMILES comes first, the peptide text is derived from it.

Sequence of HLA A*3001 (P04439 25-365 limits assumed, stated change not applied): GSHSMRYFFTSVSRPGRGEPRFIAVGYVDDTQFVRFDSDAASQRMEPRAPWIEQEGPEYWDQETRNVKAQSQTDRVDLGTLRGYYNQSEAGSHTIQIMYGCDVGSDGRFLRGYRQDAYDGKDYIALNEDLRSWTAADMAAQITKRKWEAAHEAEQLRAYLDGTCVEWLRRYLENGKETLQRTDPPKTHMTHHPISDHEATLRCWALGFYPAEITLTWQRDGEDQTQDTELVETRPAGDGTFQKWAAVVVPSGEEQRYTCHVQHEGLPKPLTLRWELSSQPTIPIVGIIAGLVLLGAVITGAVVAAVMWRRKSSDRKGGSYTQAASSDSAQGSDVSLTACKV

This test concerns the target HLA A*3001 (Homo sapiens, UniProt P04439, D140H/D185E/E176W/F33S/G80R/H175R/K168Q/R138E/R41S). Briefly: biochemical. Type of test: binding.
In the case of `CC[C@H](C)[C@H](NC(=O)[C@H](CC(N)=O)NC(=O)[C@@H]1CCCN1C(=O)[C@@H](NC(=O)[C@H](Cc1c[nH]cn1)NC(=O)[C@H](CC(N)=O)NC(=O)[C@H](CCCCN)NC(=O)[C@@H](NC(=O)[C@@H](N)CCCCN)C(C)C)[C@@H](C)CC)C(=O)O` [3102.0222] (H-KVKNHIPNI-OH), the IC50 came out at 0.68 nM. This lies in the sub-nanomolar range.

As for `C[C@H](NC(=O)[C@H](C)NC(=O)[C@H](CC(N)=O)NC(=O)[C@H](CCC(N)=O)NC(=O)[C@@H]1CCCN1C(=O)[C@H](CC(=O)O)NC(=O)[C@H](CCCNC(=N)N)NC(=O)[C@@H](NC(=O)[C@@H](N)Cc1c[nH]cn1)[C@@H](C)O)C(=O)O` [3102.0224] (H-HTRDPQNAA-OH), the IC50 is 0.91 nM. For the compound `CC[C@H](C)[C@H](NC(=O)[C@@H](NC(=O)[C@@H](N)CCSC)[C@@H](C)O)C(=O)N[C@@H](CCCNC(=N)N)C(=O)N[C@@H](CCC(=O)O)C(=O)N[C@@H](Cc1ccccc1)C(=O)N1CCC[C@H]1C(=O)N[C@@H](CCCNC(=N)N)C(=O)N[C@@H](CCCCN)C(=O)O` [3102.0225] (H-MTIREFPRK-OH), it took 1.6 nM to reach half-maximal inhibition (IC50). The figure for `CC[C@H](C)[C@H](NC(=O)[C@H](Cc1ccc(O)cc1)NC(=O)CNC(=O)CNC(=O)[C@@H](NC(=O)[C@H](Cc1ccccc1)NC(=O)[C@H](CCCNC(=N)N)NC(=O)[C@H](C)NC(=O)[C@@H](N)CCCNC(=N)N)[C@@H](C)CC)C(=O)O` [3102.0226] (H-RARFIGGYI-OH) is 0.26 nM.

In the case of `CC(C)C[C@H](NC(=O)[C@H](CCC(N)=O)NC(=O)CNC(=O)[C@H](CC(=O)O)NC(=O)[C@H](CCCNC(=N)N)NC(=O)[C@@H](NC(=O)[C@@H](N)[C@@H](C)O)C(C)C)C(=O)N[C@@H](CCC(=O)O)C(=O)N[C@H](C(=O)O)C(C)C` [3102.0228] (H-TVRDGQLEV-OH), 13 nM corresponded to half-maximal inhibition (IC50). To `CC[C@H](C)[C@H](NC(=O)[C@H](CC(C)C)NC(=O)[C@H](CO)NC(=O)CNC(=O)[C@@H]1CCCN1C(=O)[C@H](CCCNC(=N)N)NC(=O)[C@H](Cc1ccccc1)NC(=O)[C@@H](N)CCCCN)C(=O)N[C@@H](Cc1ccc(O)cc1)C(=O)O` [3102.0230] (H-KFRPGSLIY-OH) belongs 0.3 nM. In turn, `CSCC[C@H](NC(=O)[C@@H](N)CCCCN)C(=O)N[C@@H](CCCNC(=N)N)C(=O)N[C@@H](CCCNC(=N)N)C(=O)N[C@@H](CCC(=O)O)C(=O)N[C@@H](CCCNC(=N)N)C(=O)N[C@@H](C)C(=O)N[C@@H](C)C(=O)N[C@@H](Cc1ccc(O)cc1)C(=O)O` [3102.0231] (H-KMRRERAAY-OH) came in with a half-maximal inhibitory concentration (IC50) of 3 nM. This IC50 lies about 10-fold higher than the previous one. Compound `CSCC[C@H](N)C(=O)N[C@@H](CCCNC(=N)N)C(=O)N[C@@H](CCCNC(=N)N)C(=O)N[C@@H](CCC(=O)O)C(=O)N[C@@H](CCCNC(=N)N)C(=O)N[C@@H](C)C(=O)N[C@@H](C)C(=O)N[C@@H](Cc1ccc(O)cc1)C(=O)N[C@H](C(=O)O)C(C)C` [3102.0232] (H-MRRERAAYV-OH) yielded an IC50 of 22 nM. In the case of `CC(C)C[C@H](NC(=O)[C@H](CCC(=O)O)NC(=O)[C@H](CCCNC(=N)N)NC(=O)[C@H](CCCCN)NC(=O)[C@H](Cc1ccc(O)cc1)NC(=O)[C@H](Cc1ccccc1)NC(=O)[C@H](CCCCN)NC(=O)[C@@H](NC(=O)[C@@H](N)CCCCN)C(C)C)C(=O)O` [3102.0235] (H-KVKFYKREL-OH), 42 nM corresponded to half-maximal inhibition (IC50). `CC[C@H](C)[C@H](NC(=O)[C@H](CCCNC(=N)N)NC(=O)[C@@H](NC(=O)[C@@H](N)CCCCN)[C@@H](C)O)C(=O)N[C@@H](CCCNC(=N)N)C(=O)N[C@@H](CC(N)=O)C(=O)N[C@@H](CC(C)C)C(=O)N[C@@H](CCCCN)C(=O)N[C@@H](CCCNC(=N)N)C(=O)O` [3102.0236] (H-KTRIRNLKR-OH) yielded an IC50 of 6.5 nM.

For `CC[C@H](C)[C@H](NC(=O)[C@H](CCC(N)=O)NC(=O)[C@H](CCC(=O)O)NC(=O)[C@H](CCCNC(=N)N)NC(=O)[C@H](C)NC(=O)[C@@H](N)CCCNC(=N)N)C(=O)N[C@@H](CO)C(=O)N[C@@H](CC(N)=O)C(=O)N[C@@H](CC(C)C)C(=O)O` [3102.0237] (H-RAREQISNL-OH), the IC50 turned out to be 2.7 nM. This IC50 lies about 2.4-fold lower than the previous one. The figure for `CC(C)C[C@H](NC(=O)[C@H](CC(=O)O)NC(=O)[C@H](CCCCN)NC(=O)[C@@H](NC(=O)[C@@H](N)CCCCN)C(C)C)C(=O)N[C@@H](Cc1ccccc1)C(=O)N[C@@H](CC(N)=O)C(=O)N[C@H](C(=O)N[C@@H](CCCCN)C(=O)O)[C@@H](C)O` [3102.0238] (H-KVKDLFNTK-OH) is 38 nM; for `CC[C@H](C)[C@H](NC(=O)[C@@H](NC(=O)[C@@H](NC(=O)[C@H](CCCCN)NC(=O)[C@H](C)NC(=O)[C@@H](N)CCCCN)[C@@H](C)O)[C@@H](C)O)C(=O)N[C@@H](CO)C(=O)N[C@@H](CC(N)=O)C(=O)N[C@@H](Cc1ccc(O)cc1)C(=O)O` [3102.0241] (H-KAKTTISNY-OH) it is 24 nM. The figure for `CC(C)C[C@H](NC(=O)[C@H](CC(N)=O)NC(=O)[C@@H](NC(=O)[C@H](CC(C)C)NC(=O)[C@H](CCCNC(=N)N)NC(=O)[C@H](CCC(N)=O)NC(=O)[C@@H](N)CCCCN)[C@@H](C)O)C(=O)N[C@@H](CCC(=O)O)C(=O)N[C@@H](CCCCN)C(=O)O` [3102.0243] (H-KQRLTNLEK-OH) is 0.95 nM; for `CC[C@H](C)[C@H](NC(=O)[C@H](CCSC)NC(=O)[C@H](C)NC(=O)[C@H](C)NC(=O)[C@H](CCCNC(=N)N)NC(=O)[C@H](CC(C)C)NC(=O)[C@@H](N)[C@@H](C)O)C(=O)N[C@@H](CO)C(=O)N[C@@H](CC(C)C)C(=O)O` [3102.0245] (H-TLRAAMISL-OH) it is 0.71 nM. The figure for `CC[C@H](C)[C@H](NC(=O)[C@H](CC(C)C)NC(=O)[C@H](CO)NC(=O)[C@@H](NC(=O)[C@H](CCCNC(=N)N)NC(=O)[C@@H](NC(=O)[C@@H](N)CCCNC(=N)N)C(C)C)[C@@H](C)CC)C(=O)N[C@@H](Cc1ccc(O)cc1)C(=O)N[C@@H](CC(C)C)C(=O)O` [3102.0249] (H-RVRISLIYL-OH) is 0.092 nM. `CC(C)C[C@H](NC(=O)[C@H](CO)NC(=O)[C@H](Cc1c[nH]cn1)NC(=O)[C@H](CC(C)C)NC(=O)[C@H](CCCNC(=N)N)NC(=O)[C@H](C)NC(=O)[C@H](CO)NC(=O)[C@@H](NC(=O)[C@@H](N)Cc1c[nH]cn1)[C@@H](C)O)C(=O)O` [3102.0250] (H-HTSARLHSL-OH) displayed an IC50 of 4.1 nM. `C[C@@H](O)[C@H](N)C(=O)N[C@H](C(=O)N[C@@H](CCCCN)C(=O)N[C@@H](CC(N)=O)C(=O)NCC(=O)N[C@@H](CCC(N)=O)C(=O)N1CCC[C@H]1C(=O)N[C@@H](CCCNC(=N)N)C(=O)N[C@@H](CCCCN)C(=O)O)[C@@H](C)O` [3102.0252] (H-TTKNGQPRK-OH) returned an IC50 of 0.23 nM. The compound `CC[C@H](C)[C@H](NC(=O)[C@H](CC(N)=O)NC(=O)[C@H](CO)NC(=O)[C@H](CCSC)NC(=O)[C@H](CC(C)C)NC(=O)[C@H](CCCCN)NC(=O)[C@@H](NC(=O)[C@@H](N)CCCNC(=N)N)[C@@H](C)O)C(=O)N[C@@H](CCCCN)C(=O)O` [3102.0253] (H-RTKLMSNIK-OH) returned an IC50 of 0.38 nM.

In the case of `CC[C@H](C)[C@H](NC(=O)[C@H](CCSC)NC(=O)[C@H](CCSC)NC(=O)[C@@H](NC(=O)[C@@H](N)CCCCN)[C@@H](C)O)C(=O)N[C@@H](CC(N)=O)C(=O)N1CCC[C@H]1C(=O)N[C@@H](Cc1ccccc1)C(=O)N[C@@H](CCSC)C(=O)O` [3102.0254] (H-KTMMINPFM-OH), the midpoint of inhibition, the IC50, lay at 0.36 nM. Turning to `CC[C@H](C)[C@H](NC(=O)[C@@H](NC(=O)[C@H](CO)NC(=O)[C@@H](N)CCSC)C(C)C)C(=O)N[C@@H](CO)C(=O)N[C@@H](CC(N)=O)C(=O)N1CCC[C@H]1C(=O)N[C@@H](CO)C(=O)N[C@@H](CCCCN)C(=O)O` [3102.0255] (H-MSVISNPSK-OH), inhibition was half-maximal at 20 nM (IC50).

`CC(C)C[C@H](NC(=O)[C@H](CCCCN)NC(=O)[C@H](Cc1ccccc1)NC(=O)[C@@H](N)CCCCN)C(=O)N[C@H](C(=O)N[C@@H](CC(C)C)C(=O)N1CCC[C@H]1C(=O)N[C@@H](CC(N)=O)C(=O)N[C@@H](CCCCN)C(=O)O)[C@@H](C)O` [3102.0261] (H-KFKLTLPNK-OH): the IC50 stood at 12 nM. The figure for `CC(C)C[C@H](NC(=O)[C@H](CCCCN)NC(=O)[C@H](CCCCN)NC(=O)[C@@H](NC(=O)[C@@H](N)CCCCN)C(C)C)C(=O)N[C@@H](CC(N)=O)C(=O)N[C@@H](CCCNC(=N)N)C(=O)N[C@@H](CS)C(=O)N[C@@H](C)C(=O)O` [3102.0262] (H-KVKKLNRCA-OH) is 3.1 nM; for `CSCC[C@H](NC(=O)[C@H](Cc1ccccc1)NC(=O)[C@H](CCCCN)NC(=O)[C@H](CCCNC(=N)N)NC(=O)[C@H](CO)NC(=O)[C@@H](N)CCSC)C(=O)N[C@@H](CCC(N)=O)C(=O)N[C@H](C(=O)N[C@@H](Cc1ccc(O)cc1)C(=O)O)C(C)C` [3102.0264] (H-MSRKFMQVY-OH) it is 1.5 nM; for `CC(C)C[C@H](NC(=O)[C@@H](NC(=O)[C@H](CS)NC(=O)[C@H](C)NC(=O)[C@H](Cc1ccccc1)NC(=O)[C@H](CCCCN)NC(=O)[C@H](CO)NC(=O)[C@@H](N)CO)C(C)C)C(=O)N[C@@H](CCCCN)C(=O)O` [3102.0265] (H-SSKFACVLK-OH) it is 9.9 nM. For the compound `C[C@H](NC(=O)[C@H](CCCNC(=N)N)NC(=O)[C@H](CC(N)=O)NC(=O)[C@H](CCC(N)=O)NC(=O)[C@H](Cc1ccccc1)NC(=O)[C@H](CCCCN)NC(=O)[C@@H](NC(=O)[C@@H](N)CCCNC(=N)N)[C@@H](C)O)C(=O)N[C@@H](CCCCN)C(=O)O` [3102.0266] (H-RTKFQNRAK-OH), the midpoint of inhibition, the IC50, lay at 0.16 nM. For `CC[C@H](C)[C@H](NC(=O)[C@H](CCCCN)NC(=O)[C@H](Cc1c[nH]cn1)NC(=O)[C@@H](N)CCCCN)C(=O)N[C@@H](Cc1ccccc1)C(=O)N[C@@H](CO)C(=O)N1CCC[C@H]1C(=O)N[C@@H](Cc1ccccc1)C(=O)N[C@@H](CCCCN)C(=O)O` [3102.0267] (H-KHKIFSPFK-OH), the IC50 was 0.89 nM. `CSCC[C@H](NC(=O)[C@H](CCCNC(=N)N)NC(=O)[C@H](Cc1ccc(O)cc1)NC(=O)[C@@H](N)CCCNC(=N)N)C(=O)N[C@@H](Cc1c[nH]cn1)C(=O)N1CCC[C@H]1C(=O)N[C@@H](CCSC)C(=O)N[C@@H](CO)C(=O)N[C@@H](CCCCN)C(=O)O` [3102.0268] (H-RYRMHPMSK-OH) returned an IC50 of 0.068 nM.

The compound `CC[C@H](C)[C@H](NC(=O)[C@H](CCC(N)=O)NC(=O)[C@@H](NC(=O)[C@@H](NC(=O)[C@H](C)NC(=O)[C@H](CCCCN)NC(=O)[C@@H](NC(=O)[C@@H](N)[C@@H](C)O)[C@@H](C)O)[C@@H](C)O)[C@@H](C)O)C(=O)N[C@@H](C)C(=O)O` [3102.0270] (H-TTKATTQIA-OH) registered a half-inhibitory concentration (IC50) of 6.5 nM. Against the preceding compound, the IC50 is about 96-fold higher.
